Reference: PMC8080777, “Discovery, optimization, and evaluation of non-bile acid FXR/TGR5 dual agonists” (Scientific Reports, 2021)
“And” between values parts separate entries of the source, which are not always exact repeats. Equal entries are not always repeated.

Key:
[1] = molecular target: T1, TGR5 (Homo sapiens, UniProt Q8TDU6); test: TGR5 cAMP assay in CHO cells transfected with TGR5 (cAMP Hunter eXpress, Discover X); format: cell-based
T1 construct: host or cells: CHO cells
T1 sequence (Q8TDU6 1-330): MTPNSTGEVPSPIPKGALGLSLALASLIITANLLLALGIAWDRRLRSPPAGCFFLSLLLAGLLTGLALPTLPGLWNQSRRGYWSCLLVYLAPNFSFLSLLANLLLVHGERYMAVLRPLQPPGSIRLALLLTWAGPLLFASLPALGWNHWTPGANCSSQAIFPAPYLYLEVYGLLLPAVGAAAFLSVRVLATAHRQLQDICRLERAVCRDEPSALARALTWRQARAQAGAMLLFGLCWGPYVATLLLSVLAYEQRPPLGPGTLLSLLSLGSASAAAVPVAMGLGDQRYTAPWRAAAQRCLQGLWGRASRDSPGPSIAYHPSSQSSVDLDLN
Method: TGR5 agonist activity was evaluated by transfecting CHO cells with TGR5 using the Discover X expression kit (cAMP Hunter eXpress GPCR Assay, Discover X Fremont, CA). Cells were incubated with test compounds for 0.5 h, and intracellular cAMP levels were measured using the multi-mode microplate reader.
(§1) TGR5 agonist activity was evaluated by transfecting CHO cells with TGR5 using the Discover X expression kit (cAMP Hunter eXpress Assay Kit, Discover X Fremont, CA, USA). Cells were incubated with the test compounds for 0.5 h, and intracellular cAMP levels were measured using Multi-Mode Microplate Reader (FlexStation 3, Molecular Devices Inc., San Jose, CA, USA).
Each compound was tested at concentrations of 10, 1, or 0.1 µM in duplicate (n = 2), with the average value shown.
S4. In vitro, in vivo assay, and selectvity. […]
In vitro TGR5 agonist assay protocol
as §1
Each compound was tested at concentrations of 10, 1, or 0.1 µM in duplicate (n=2), with the […]
parameter logistic equation, Y = min + (max - min)/(1 + 10^(n * (log10(EC50) - log10(conc)))), in […]

[2] = test system: FXR; conditions: cited from earlier work
[3] = molecular target: T1, TGR5; conditions: cited from earlier work
[4] = molecular target: T2, FXR (Homo sapiens, UniProt Q96RI1); test: CHO cell-based FXR luciferase reporter assay (Indigo Biosciences); conditions: for FXR Efficacy (%) (0.1 µM) / FXR Efficacy (%) (1 µM): % vs OCA 1 µM as 100%
T2 construct: host or cells: CHO cells
T2 sequence (Q96RI1 1-486): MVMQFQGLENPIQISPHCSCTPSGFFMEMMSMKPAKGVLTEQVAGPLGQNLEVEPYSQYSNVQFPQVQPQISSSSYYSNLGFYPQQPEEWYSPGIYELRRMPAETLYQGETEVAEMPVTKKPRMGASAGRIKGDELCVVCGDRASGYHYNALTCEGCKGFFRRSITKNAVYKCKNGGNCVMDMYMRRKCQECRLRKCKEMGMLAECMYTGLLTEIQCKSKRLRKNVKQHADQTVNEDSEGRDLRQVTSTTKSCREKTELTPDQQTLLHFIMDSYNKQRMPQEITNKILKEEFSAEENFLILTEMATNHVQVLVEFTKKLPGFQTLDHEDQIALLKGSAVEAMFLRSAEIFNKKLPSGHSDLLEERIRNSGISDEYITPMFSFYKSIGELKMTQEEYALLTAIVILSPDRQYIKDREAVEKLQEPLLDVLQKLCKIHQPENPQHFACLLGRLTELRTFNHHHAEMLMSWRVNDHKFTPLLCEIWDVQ
Method: To evaluate direct agonist activities against FXR, test compounds were evaluated using a CHO cell-based FXR assay by Indigo Biosciences (State College, PA), in which cells were transfected with an FXR luciferase reporter system.
To directly evaluate the in vitro agonist activity towards FXR, test compounds were evaluated in CHO cells transfected with FXR responsive luciferase reporter (Nuclear Receptor & In Vitro Toxicology Solutions, Indigo Biosciences, State College, PA, USA). […] Each compound was tested in duplicate, and the average value was reported[35],[36].
(§2) The cell recovery medium (CRM, Human Farnesoid X Receptor (NR1H4, FXR reporter assay system, Indigo Biosciences, State College, PA, USA) and compound screening medium (CSM, Human Farnesoid X Receptor (NR1H4, FXR reporter assay system, Indigo Biosciences, State College, PA, USA) were removed from the freezer and thawed in a water bath at 37 °C. Test compounds were dissolved in dimethyl sulfoxide (DMSO, FUJIFILM Wako Pure Chemical Corporation, Osaka city, Osaka, Japan), and the treatment medium was prepared and diluted with CSM to achieve a final concentration of 0.2% total DMSO. The reporter cells were thawed by transferring 3.3 mL CRM at 37 °C into tubes of frozen cells. The tube containing reporter cells was recapped, and it was immediately place in a 37 °C water bath for 5 min. The reporter cells were gently inverted several times, and 100 µL cell suspension was dispensed into each well. One hundred microliters of treatment media was added into wells. Subsequently, the assay plate was kept at 37 °C, and it was incubated with 5% CO2 for 22 h. To prepare luciferase detection reagent (LDR), the detection substrate was gently mixed with detection buffer, media contents were removed from each well, and 100 µL LDR was added to each well of the assay plate. The assay plate was allowed to rest at room temperature for 5 min, and luminescence was quantified using the Multi-Mode Microplate Reader (FlexStation 3, Molecular Devices Inc., San Jose, CA, USA)[36].
S4. In vitro, in vivo assay, and selectvity.
To directly evaluate the in vitro agonist activity towards FXR, test compounds were evaluated in CHO cells transfected with FXR responsive luciferase reporter (Nuclear Receptor & In Vitro Toxicology Solutions, Indigo Biosciences, State College, PA, USA). Cells were incubated with […]
(FlexStation 3, Molecular Devices Inc., San Jose, CA, USA). Efficacies are reported relative to […]
reporter on of 1 µM. Each compound was tested in duplicate, and the average value was […]
as §2, with “sulfoxide (DMSO ,” for “sulfoxide (DMSO,”, “Osaka, Jap an),” for “Osaka, Japan),”, “a 37°C” for “a 37 °C”, “5% CO 2” for “5% CO2”, “using […]” for “using the Multi-Mode Microplate Reader (FlexStation 3, Molecular Devices Inc., San Jose, CA, USA)[36].”

SMILES | TGR5 Efficacy (%) (0.1 µM) ([1]; 0.1 µM, % vs INT-767 10 µM as 100%) | TGR5 Efficacy (%) (1 µM) ([1]; % vs INT-767 10 µM as 100%) | FXR Efficacy (%) (0.1 µM) [4] | FXR Efficacy (%) (1 µM) [4] | TGR5 Efficacy (%) (10 µM) ([1]; % vs INT-767 10 µM as 100%) | TGR5 agonist activity (in words) [1] | FXR agonist activity (in words) [4] | Reported FXR activity (in words) [2] | Reported TGR5 activity (in words) [3]
Cc1cc2c(CN(C(=O)c3ccncc3C)c3ccc(F)cc3C)cccc2[nH]1 [Compound 8, reference compound] | 84.7% | 84.7% and 66.1% |  |  |  |  |  | no agonist or antagonist activity against FXR | TGR5 agonist
Cc1cnccc1C(=O)N(CC12CCC(c3ccc(N(C)C)cc3)(CC1)CC2)c1cc(Cl)cc(Cl)c1 [Compound 20s] |  | 18.9% | 56.4% | 95.3% |  |  | high potency against FXR |  | 
COc1cc(Cl)cc(N(CC23CCC(c4ccc(N(C)C)cc4)(CC2)CC3)C(=O)c2ccncc2C)c1 [Compound 20t] |  | 25.0% | 32.8% | 77.3% |  |  |  |  | 
COc1ncc(C23CCC(CN(C(=O)c4ccncc4C)c4cc(Cl)cc(Cl)c4)(CC2)CC3)cc1C [Compound 20u] |  | 12.1% | 69.2% | 76.2% |  |  |  |  | 
COc1ccc(C23CCC(CN(C(=O)c4ccncc4C)c4cc(Cl)cc(Cl)c4)(CC2)CC3)cc1Cl [Compound 20v] |  | 33.5% | 65.4% | 79.6% |  |  |  |  | 

More lines, main results first:

TGR5 Efficacy (%) (0.1 µM) ([1]; 0.1 µM, % vs INT-767 10 µM as 100%) | TGR5 Efficacy (%) (1 µM) ([1]; % vs INT-767 10 µM as 100%) | FXR Efficacy (%) (0.1 µM) [4] | FXR Efficacy (%) (1 µM) [4] | TGR5 Efficacy (%) (10 µM) ([1]; % vs INT-767 10 µM as 100%) | TGR5 agonist activity (in words) [1] | FXR agonist activity (in words) [4] | SMILES | Reported FXR activity (in words) [2] | Reported TGR5 activity (in words) [3]
 |  | 73.5% | 98.9% | 67.6% |  |  | Cc1cnccc1C(=O)N(CC12CCC(c3ccc4c(c3)OCO4)(CC1)CC2)c1cc(Cl)cc(Cl)c1 [Compound 20n] |  | 
 | 36.0% | 29.4% | 97.6% | 78.9% |  |  | COc1cc(Cl)cc(N(CC23CCC(c4ccc5c(c4)OCO5)(CC2)CC3)C(=O)c2ccncc2C)c1 [Compound 20o] |  | 
 | 57.1% | 28.0% | 72.6% |  | most potent TGR5 activity |  | Cc1cnccc1C(=O)N(CC12CCC(c3ccc4c(c3)OCCO4)(CC1)CC2)c1cc(Cl)cc(Cl)c1 [Compound 20r] |  | 
